Data published in patent publication US20230002348A1 (ILDONG PHARMACEUTICAL CO., LTD., priority 2019, published 2023).
Like-named read-outs stand apart in the source and are kept apart here.

Molecular target: T1, GLP-1 receptor (Homo sapiens, UniProt P43220)
T1 construct: expressed in transfected cells; host or cells: CHO-K1
Test: cAMP assay (HTRF) in GLP-1 receptor CHO-K1 cells
Format: cell-based
Settings: for Emax: CHO-K1, cAMP stimulation ratio
Description: The cAMP assay test was performed according to a method optimized based on a protocol provided by cAMP assay kit manufacturer (CISBIO). […] 54, of the compounds according to the Examples 1, 2, 5, 8, 12, 13, 15, 16, 19, 20, 23, 29, 32, 37, 39 and 43 at the concentration of 0, 1, 10, 100, 1000, 10000 nM was treated to each of the wells of the other plates, respectively. The cells were incubated at room temperature for 7 minutes. A cAMP-d2 conjugate reagent was prepared by mixing a cAMP conjugate with an elution buffer at a ratio of 1:4. An anti-cAMP cryptate conjugate reagent was prepared by mixing a […] with an elution buffer at a ratio of 1:4. Then, 5 μL, of the cAMP-d2 conjugate reagent was added to each of the wells. Subsequently, 5 μL, of the anti-cAMP cryptate conjugate reagent was added to each of the wells. After incubation of the cells at room temperature for 1 hour, HTRF signals at wavelengths of 665 nm and 620 nm of the culture were measured using a FlexStaton 3 (Molecular Devices) instrument. The ratio of 665/620 was calculated from the measured values at 665 nm and 620 nm with regard to Exendin-4 and the compounds of the Examples, respectively.

[1] = 665/620 ratio with Exendin-4 converted to 100%

T1 sequence (P43220 24-463, species assumed): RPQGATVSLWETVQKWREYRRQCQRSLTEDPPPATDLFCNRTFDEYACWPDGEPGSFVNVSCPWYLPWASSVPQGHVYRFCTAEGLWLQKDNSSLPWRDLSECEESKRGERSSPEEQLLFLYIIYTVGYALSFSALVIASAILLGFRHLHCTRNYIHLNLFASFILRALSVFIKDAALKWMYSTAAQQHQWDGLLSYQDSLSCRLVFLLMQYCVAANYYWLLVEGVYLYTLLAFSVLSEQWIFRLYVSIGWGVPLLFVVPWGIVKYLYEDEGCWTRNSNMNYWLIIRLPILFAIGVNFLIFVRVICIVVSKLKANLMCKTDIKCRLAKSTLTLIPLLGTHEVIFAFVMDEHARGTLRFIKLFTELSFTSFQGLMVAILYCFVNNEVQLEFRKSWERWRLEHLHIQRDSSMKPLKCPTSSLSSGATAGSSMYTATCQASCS

Structure (SMILES) | EC50 [nM] | Emax [1] [%] | EC50 (GLP-1 receptor CHO-K1 cells, cAMP HTRF, 7 minutes incubation at room temperature) [nM] | Emax (%) (cAMP stimulation ratio, 665/620 ratio with Exendin-4 converted to 100%)
O=C(O)c1ccc2nc(CN3CC[C@@H](Nc4ncc(F)c(OCc5ccc(Cl)cc5F)n4)C3)n(C[C@@H]3CCO3)c2c1 [Example 29, 2-(((R)-3-((4-((4-chloro-2-fluorobenzyl)oxy)-5-fluoropyrimidin-2-yl)amino)pyrrolidin-1-yl)methyl)-1-(((S)-oxetan-2-yl)methyl)-1H-benzo[d]imidazole-6-carboxylic acid] | < 100 | 99.2 | – | –
O=C(O)c1ccc2nc(CN3CCC(Nc4cccc(OCc5ccc(Cl)cc5F)n4)CC3)n(C[C@@H]3CCO3)c2n1 [Example 13] | < 100 | 94.5 | – | –
N#Cc1ccc(COc2cccc(N[C@@H]3CCN(Cc4nc5ccc(C(=O)O)cc5n4C[C@@H]4CCO4)C3)c2)c(F)c1 [Example 37, 2-(((R)-3-((3-((4-cyano-2-fluorobenzyl)oxy)phenyl)amino)pyrrolidin-1-yl)methyl)-1-(((S)-oxetan-2-yl)methyl)-1H-benzo[d]imidazole-6-carboxylic acid] | < 100 | 127 | – | –
O=C(O)c1ccc2nc(CN3CCC(Nc4cccc(OCc5ccc(Cl)cn5)n4)CC3)n(C[C@@H]3CCO3)c2c1 [Example 39, (S)-2-((4-((6-((5-chloropyridin-2-yl)methoxy)pyridin-2-yl)amino)piperidin-1-yl)methyl)-1-(oxetan-2-ylmethyl)-1H-benzo[d]imidazole-6-carboxylic acid] | 100 to 200 | 96.6 | – | –
O=C(O)c1ccc2nc(CN3CCC(Oc4cccc(NCc5ccc(Cl)cc5F)n4)CC3)n(C[C@@H]3CCO3)c2c1 [Example 5, (S)-2-((4-((6-((4-chloro-2-fluorobenzyl)amino)pyridin-2-yl)oxy)piperidin-1-yl)methyl)-1-(oxetan-2-ylmethyl)-1H-benzo[d]imidazole-6-carboxylic acid] | 100 to 200 | 107 | – | –
O=C(O)c1ccc2nc(CN3CC[C@@H](Nc4cccc(OCc5ccc(Cl)cc5F)n4)C3)n(C[C@@H]3CCO3)c2c1 [Example 15, 2-(((R)-3-((6-((4-chloro-2-fluorobenzyl)oxy)pyridin-2-yl)amino)pyrrolidin-1-yl)methyl)-1-(((S)-oxetan-2-yl)methyl)-1H-benzo[d]imidazole-6-carboxylic acid] | < 100 | 99.6 | – | –
N#Cc1ccc(COc2cncc(NC3CCN(Cc4nc5ccc(C(=O)O)cc5n4C[C@@H]4CCO4)CC3)n2)c(F)c1 [Example 19, (S)-2-((4-((6-((4-cyano-2-fluorobenzyl)oxy)pyrazin-2-yl)amino)piperidin-1-yl)methyl)-1-(oxetan-2-ylmethyl)-1H-benzo[d]imidazole-6-carboxylic acid] | 100 to 200 | 97 | – | –
N#Cc1ccc(COc2nccc(N[C@@H]3CCN(Cc4nc5ccc(C(=O)O)cc5n4C[C@@H]4CCO4)C3)n2)c(F)c1 [Example 23, 2-(((R)-3-((2-((4-cyano-2-fluorobenzyl)oxy)pyrimidin-4-yl)amino)pyrrolidin-1-yl)methyl)-1-(((S)-oxetan-2-yl)methyl)-1H-benzo[d]imidazole-6-carboxylic acid] | 100 to 200 | 99.8 | – | –
N#Cc1ccc(COc2cc(N[C@@H]3CCN(Cc4nc5ccc(C(=O)O)cc5n4C[C@@H]4CCO4)C3)ccc2F)nc1 [Example 8, 2-(((R)-3-((3-((5-cyanopyridin-2-yl)methoxy)-4-fluorophenyl)amino)pyrrolidin-1-yl)methyl)-1-(((S)-oxetan-2-yl)methyl)-1H-benzo[d]imidazole-6-carboxylic acid] | < 100 | 99.6 | – | –
N#Cc1ccc(COc2cccc(N[C@@H]3CCN(Cc4nc5ccc(C(=O)O)cc5n4C[C@@H]4CCO4)C3)n2)c(F)c1 [Example 20, 2-((3-((6-((4-cyano-2-fluorobenzyl)oxy)pyridin-2-yl)amino)pyrrolidin-1-yl)methyl)-1-(((S)-oxetan-2-yl)methyl)-1H-benzo[d]imidazole-6-carboxylic acid] | < 100 | 96.3 | – | –
O=C(O)c1ccc2nc(CN3CC[C@@H](Nc4cccc(OCc5ccc(Cl)cc5F)n4)C3)n(C[C@@H]3CCO3)c2n1 [Example 16, 2-(((R)-3-((6-((4-chloro-2-fluorobenzyl)oxy)pyridin-2-yl)amino)pyrrolidin-1-yl)methyl)-3-(((S)-oxetan-2-yl)methyl)-3H-imidazo[4,5-b]pyridine-5-carboxylic acid] | < 100 | 95 | – | –
N#Cc1ccc(COc2ccnc(N[C@@H]3CCN(Cc4nc5ccc(C(=O)O)cc5n4C[C@@H]4CCO4)C3)n2)c(F)c1 [Example 43, 2-(((R)-3-((4-((4-cyano-2-fluorobenzyl)oxy)pyrimidin-2-yl)amino)pyrrolidin-1-yl)methyl)-1-(((S)-oxetan-2-yl)methyl)-1H-benzo[d]imidazole-6-carboxylic acid] | < 100 | 110 | – | –
N#Cc1ccc(COc2cccc(NC3CCN(Cc4nc5ccc(C(=O)O)cc5n4C[C@@H]4CCO4)CC3)c2)c(F)c1 [Example 2, (S)-2-((4-((3-((4-cyano-2-fluorobenzyl)oxy)phenyl)amino)piperidin-1-yl)methyl)-1-(oxetan-2-ylmethyl)-1H-benzo[d]imidazole-6-carboxylic acid] | 100 to 200 | 102 | – | –
O=C(O)c1ccc2nc(CN3CCC(Nc4cccc(OCc5ccc(Cl)cc5F)n4)CC3)n(C[C@@H]3CCO3)c2c1 [Example 12, (S)-2-((4-((6-((4-chloro-2-fluorobenzyl)oxy)pyridin-2-yl)amino)piperidin-1-yl)methyl)-1-(oxetan-2-ylmethyl)-1H-benzo[d]imidazole-6-carboxylic acid] | < 100 | 103 | – | –
N#Cc1ccc(COc2cccc(NC3CCN(Cc4nc5ccc(C(=O)O)cc5n4C[C@@H]4CCO4)CC3)n2)c(F)c1 [Example 1, (S)-2-((4-((6-((4-cyano-2-fluorobenzyl)oxy)pyridin-2-yl)amino)piperidin-1-yl)methyl)-1-(oxetan-2-ylmethyl)-1H-benzo[d]imidazole-6-carboxylic acid] | < 100 | 96.3 | – | –
N#Cc1ccc(COc2cccc(N[C@@H]3CCN(Cc4nc5ccc(C(=O)O)cc5n4C[C@@H]4CCO4)C3)n2)c(F)c1 [Example 32, 2-(((R)-3-((6-((4-cyano-2-fluorobenzyl)oxy)pyridin-2-yl)amino)pyrrolidin-1-yl)methyl)-1-(((S)-oxetan-2-yl)methyl)-1H-benzo[d]imidazole-6-carboxylic acid] | – | – | < 100 | 96.94
